{
  "source": "patent US11518750B2",
  "about": "“3-methylideneoxan-4-one compounds and substituted derivatives thereof as inhibitors of telomerase” (NORTHWESTERN UNIVERSITY, priority 2019, dated 2022)",
  "note": "pIC50: −log10 of the molar value.",
  "data": [
    {"molecular_target": "T1, telomerase (MCF-7 cell lysates) (Homo sapiens, UniProt O14746)", "T1 construct": "endogenous in cells; host or cells: MCF-7", "T1 sequence (O14746 whole entry)": "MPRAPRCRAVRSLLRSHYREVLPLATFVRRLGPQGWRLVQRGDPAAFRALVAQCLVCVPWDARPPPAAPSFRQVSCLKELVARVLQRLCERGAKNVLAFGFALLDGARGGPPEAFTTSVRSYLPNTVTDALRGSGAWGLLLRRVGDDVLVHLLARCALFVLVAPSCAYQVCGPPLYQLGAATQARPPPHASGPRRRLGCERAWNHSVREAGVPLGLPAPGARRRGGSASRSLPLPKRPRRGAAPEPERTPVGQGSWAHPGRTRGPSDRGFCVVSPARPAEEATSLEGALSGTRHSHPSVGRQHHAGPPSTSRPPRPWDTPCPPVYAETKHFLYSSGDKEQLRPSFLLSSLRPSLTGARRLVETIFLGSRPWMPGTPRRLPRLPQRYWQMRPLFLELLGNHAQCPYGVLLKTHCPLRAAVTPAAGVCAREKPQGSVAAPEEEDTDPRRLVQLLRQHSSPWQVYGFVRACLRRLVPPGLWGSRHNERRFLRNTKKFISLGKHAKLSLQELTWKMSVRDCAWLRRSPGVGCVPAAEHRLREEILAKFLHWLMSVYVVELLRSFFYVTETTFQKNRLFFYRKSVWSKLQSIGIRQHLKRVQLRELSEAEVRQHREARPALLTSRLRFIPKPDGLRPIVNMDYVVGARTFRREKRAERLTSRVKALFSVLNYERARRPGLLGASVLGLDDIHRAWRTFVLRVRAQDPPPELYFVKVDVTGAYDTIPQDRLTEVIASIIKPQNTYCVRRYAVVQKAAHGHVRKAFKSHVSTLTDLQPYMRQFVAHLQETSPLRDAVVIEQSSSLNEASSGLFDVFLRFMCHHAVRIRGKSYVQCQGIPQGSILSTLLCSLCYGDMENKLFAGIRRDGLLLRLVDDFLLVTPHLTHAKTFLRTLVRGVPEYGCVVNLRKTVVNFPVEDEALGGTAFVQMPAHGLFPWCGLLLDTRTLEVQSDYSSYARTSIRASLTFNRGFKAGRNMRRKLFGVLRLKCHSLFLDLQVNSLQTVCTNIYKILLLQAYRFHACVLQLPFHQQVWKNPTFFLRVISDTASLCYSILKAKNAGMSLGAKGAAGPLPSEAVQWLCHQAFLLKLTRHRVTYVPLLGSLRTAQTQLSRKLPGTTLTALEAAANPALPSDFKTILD", "T1 sequence (O60832 whole entry partner)": "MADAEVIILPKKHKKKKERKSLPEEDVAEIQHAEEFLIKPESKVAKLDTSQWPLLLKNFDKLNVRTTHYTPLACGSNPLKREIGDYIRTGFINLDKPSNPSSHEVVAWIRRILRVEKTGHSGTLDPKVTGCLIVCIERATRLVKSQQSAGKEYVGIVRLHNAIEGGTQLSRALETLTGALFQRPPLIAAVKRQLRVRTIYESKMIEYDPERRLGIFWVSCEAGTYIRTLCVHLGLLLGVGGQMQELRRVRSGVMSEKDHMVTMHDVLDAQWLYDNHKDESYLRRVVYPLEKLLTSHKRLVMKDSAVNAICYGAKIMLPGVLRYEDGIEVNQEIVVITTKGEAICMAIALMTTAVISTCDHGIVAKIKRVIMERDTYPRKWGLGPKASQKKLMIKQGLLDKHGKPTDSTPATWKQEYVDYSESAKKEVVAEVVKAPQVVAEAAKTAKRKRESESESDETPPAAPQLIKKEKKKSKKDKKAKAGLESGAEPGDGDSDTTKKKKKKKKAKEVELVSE", "T1 sequence (Q9NPE3 whole entry partner)": "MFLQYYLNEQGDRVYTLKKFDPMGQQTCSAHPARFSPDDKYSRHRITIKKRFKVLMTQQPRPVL", "T1 sequence (Q9NX24 whole entry partner)": "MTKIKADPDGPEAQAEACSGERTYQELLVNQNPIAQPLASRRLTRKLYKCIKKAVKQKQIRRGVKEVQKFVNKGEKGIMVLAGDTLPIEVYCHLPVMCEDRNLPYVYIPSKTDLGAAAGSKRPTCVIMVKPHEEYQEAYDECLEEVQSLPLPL", "T1 sequence (Q9NY12 whole entry partner)": "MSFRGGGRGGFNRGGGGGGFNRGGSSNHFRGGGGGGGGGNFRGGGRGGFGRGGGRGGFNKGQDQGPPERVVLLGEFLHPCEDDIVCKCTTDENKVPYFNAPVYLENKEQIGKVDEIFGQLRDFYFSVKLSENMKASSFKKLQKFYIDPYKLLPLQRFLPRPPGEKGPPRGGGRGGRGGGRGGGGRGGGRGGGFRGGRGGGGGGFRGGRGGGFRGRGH", "T1 sequence (Q9BUR4 whole entry partner)": "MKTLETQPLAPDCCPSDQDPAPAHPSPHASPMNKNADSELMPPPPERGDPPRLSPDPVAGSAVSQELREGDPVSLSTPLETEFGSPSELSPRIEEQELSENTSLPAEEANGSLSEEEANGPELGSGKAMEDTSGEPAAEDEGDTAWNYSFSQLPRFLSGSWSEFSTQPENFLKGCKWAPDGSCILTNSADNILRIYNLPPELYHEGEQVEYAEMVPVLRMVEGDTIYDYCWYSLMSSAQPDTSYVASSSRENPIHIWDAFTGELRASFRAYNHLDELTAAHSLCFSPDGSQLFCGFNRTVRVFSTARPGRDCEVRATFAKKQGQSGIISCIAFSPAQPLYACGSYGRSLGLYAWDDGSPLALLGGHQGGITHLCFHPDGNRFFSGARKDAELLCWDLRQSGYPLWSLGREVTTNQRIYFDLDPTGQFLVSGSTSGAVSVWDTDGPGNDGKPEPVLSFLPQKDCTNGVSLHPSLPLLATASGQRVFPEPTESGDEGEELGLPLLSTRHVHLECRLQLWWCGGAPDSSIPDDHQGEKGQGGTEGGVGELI", "test": "TRAP assay in cell lysates (PCR-based telomerase activity assay)", "format": "biochemical", "details": "TRAP assay, MCF-7 cell lysates; read-out: IC50", "description": "(§1) In developing a preliminary structural activity relationship (SAR) for the chrologs, we divided the structure of the pyran into four main components: (1)C-2 substituents (carboxylic acid of chrolactomycin); (2) C-6 substituents (chrolactomycin macrolide loop); (3) C-3 substituents (fused γ-lactone of chrolactomycin) and (4) inclusion of the exocyclic methylene group. We carried out systematic modifications of each structural unit and evaluated the effects on telomerase activity as measured by a PCR-based telomerase activity assay (TRAP assay).^16\n(§2) Telomeric Repeat Amplification Protocol Assay. The telomeric repeat amplification protocol (TRAP) assay was performed using the TRAPeze RT Telomerase Detection Kit (EMD Millipore) and iTaq DNA polymerase (Bio-Rad) according to the manufacturer's protocol.\n(§3) Cell Lysate TRAP Analysis. MCF-7, HeLa, ACHN, MDA-MB231 and A549 cells were cultured in DMEM media supplemented with 10% Fetal Bovine Serum (FBS), 1% pen/strep and with 5% CO2 and 37° C. Cells were plated in 2×T75 flasks and cultured for 3 days. Flasks were rinsed twice with PBS and treated with 0.05% trypsin-EDTA (Thermo Fisher) to detach cells. […] Cell extracts were transferred to microcentrifuge tubes, 200 μl/tube, and centrifuged at 12,000×g for 20 min at 4° C. to remove cell debris. Stock solutions of compounds were made in DMSO with a concentration of 100 mM and a […] dilution was performed in DMSO in a 96-well plate to produce compound solutions of 100, 10, 1, 0.1, 0.01, and 0.001 mM (1000× of the final concentration). The 1000× stock solutions of the compound samples were transferred to a 96-well plate using the Echo 550 (Labcyte) and then diluted with the cell extracts to yield final compound concentrations of 100, 10, 1, 0.1, 0.01, and 0.001 μM. The plate was covered and shaken at room temperature for 30 min. For TRAPeze reactions, a “master mix” was prepared according to the TRAPeze protocol, containing 5 μl of the TRAPeze reaction mix; 0.4 μl Taq polymerase; 17.6 μl PCR grade, nuclease-free water. The master mix and treated cell extracts were transferred using the Mosquito Crystal Liquid Handling System (TTP Labtech) into separate wells in a white, 384-well RT-PCR plate. Each well contained 1.2 μl of the master mix and 1.2 μl of the treated cell extract to give a final volume of 2.4 μl, with two duplicates for each sample. The RT-PCR plate was then sealed and centrifuged for 5 min. A sample containing only CHAPS Lysis Buffer was included as negative control. The TSR8 standards were included to generate a standard curve. Samples were amplified in a CFW384 RT-PCR (BioRad) detection system with PCR parameters of 30 min at 30° C. for 1 cycle, 2 min at 95° C. for 1 cycle, and then 45 cycles of 15 s at 94° C., 60 s at 59° C., and 10 s at 45° C. Real-time fluorescent data was obtained during the 10 s at 45° C. step. The number of cycles at which the fluorescence level reached a threshold (Ct) was averaged between the duplicates for each sample. Using a calibration curve obtained from the TSR8 standards, a linear equation was obtained to convert the Ct values into arbitrary telomerase activity units, which were plotted as a function of compound concentration to construct dose-response curves and calculate IC50.", "values": [
      {"smiles": "C=C1C(=O)[C@](C)(C(=O)OC)[C@H](CCc2ccc(NC(C)=O)cc2)O[C@@H]1C", "note": "(racemic) [Compound 4a, (±) methyl (2S,3R,6R)-2-(4-acetamidophenethyl)-3,6-dimethyl-5-methylene-4-oxotetrahydro2H-pyran-3-carboxylate]", "pIC50": 5.82}
    ]},
    {"molecular_target": "T1, telomerase (MCF-7 cell lysates)", "test": "TRAP assay in cell lysates (PCR-based telomerase activity assay)", "format": "biochemical", "details": "Table 1, C-2 and C-6 groups; TRAP assay; read-out: IC50", "description": "as §1, §2, §3", "values": [
      {"smiles": "C=C1C(=O)[C@](C)(C(=O)OC)[C@H](CCc2ccc(NC(C)=O)cc2)O[C@@H]1C", "note": "(racemic) [Compound 4a, (±) methyl (2S,3R,6R)-2-(4-acetamidophenethyl)-3,6-dimethyl-5-methylene-4-oxotetrahydro2H-pyran-3-carboxylate]", "pIC50": 5.82},
      {"smiles": "C=C1C(=O)[C@](C)(C(=O)OC)[C@H](CCc2ccccc2)O[C@@H]1C", "note": "(racemic) [Compound 4b, (±) methyl (2S,3R,6R)-3,6-dimethyl-5-methylene-4-oxo-2-phenethyltetrahydro-2H-pyran-3 carboxylate]", "pIC50": "< 4.00"},
      {"smiles": "C=C1C(=O)[C@](C)(C(=O)OC)[C@H](CC(C)C)O[C@@H]1C", "note": "(racemic) [Compound 4c, (±) methyl (2S,3R,6R)-2-isobutyl-3,6-dimethyl-5-methylene-4-oxotetrahydro-2H-pyran-3 carboxylate]", "pIC50": "< 4.00"},
      {"smiles": "C=C1C(=O)[C@](C)(C(=O)OC)[C@H](CCc2ccc(F)cc2)O[C@@H]1C", "note": "(racemic) [Compound 4d, (±) methyl (2S,3R,6R)-2-(4-fluorophenethyl)-3,6-dimethyl-5-methylene-4-oxotetrahydro-2H pyran-3-carboxylate]", "pIC50": 4.38},
      {"smiles": "C=C1C(=O)[C@@](C)(C(=O)OC)[C@@H](CCc2ccc(C(F)(F)F)cc2)O[C@H]1C", "note": "(racemic) [Compound 4e, (±) methyl (2S,3R,6R)-3,6-dimethyl-5-methylene-4-oxo-2-(4(trifluoromethyl)phenethyl)tetrahydro-2H-pyran-3-carboxylate]", "pIC50": 4.26},
      {"smiles": "C=C1C(=O)[C@](C)(C(=O)OC)C(CCc2ccc(OC)cc2)O[C@@H]1C", "note": "(mixture of isomers) [Compound 4f, (±) methyl (2S,3R,6R)-2-(4-methoxyphenethyl)-3,6-dimethyl-5-methylene-4-oxotetrahydro2H-pyran-3-carboxylate]", "pIC50": 4.21},
      {"smiles": "C=C1C(=O)[C@@](C)(C(=O)OC)[C@@H](CCc2cccc(NC(C)=O)c2)O[C@H]1C", "note": "(racemic) [Compound 4g, (±) methyl (2S,3R,6R)-2-(3-acetamidophenethyl)-3,6-dimethyl-5-methylene-4-oxotetrahydro2H-pyran-3-carboxylate]", "pIC50": 4.96},
      {"smiles": "C=C1C(=O)[C@@](C)(C(=O)OC)[C@@H](CCc2cccc(F)c2)O[C@H]1C", "note": "(racemic) [Compound 4h, (±) methyl (2S,3R,6R)-2-(3-fluorophenethyl)-3,6-dimethyl-5-methylene-4-oxotetrahydro-2H pyran-3-carboxylate]", "pIC50": "< 4.00"},
      {"smiles": "C=C1C(=O)[C@@](C)(C(=O)OC)[C@@H](CCc2ccc(NC(C)=O)cc2)O[C@H]1CC(C)C", "note": "(racemic) [Compound 4i, (±) methyl (2S,3R,6R)-2-(4-acetamidophenethyl)-6-isobutyl-3-methyl-5-methylene-4oxotetrahydro-2H-pyran-3-carboxylate]", "pIC50": 4.35},
      {"smiles": "C=C1C(=O)[C@@](C)(C(=O)OC)[C@@H](CCc2ccc(NC(C)=O)cc2)O[C@H]1CCc1ccccc1", "note": "(racemic) [Compound 4j, (±) methyl (2S,3R,6R)-2-(4-acetamidophenethyl)-3-methyl-5-methylene-4-oxo-6phenethyltetrahydro-2H-pyran-3-carboxylate]", "pIC50": "< 4.00"}
    ]},
    {"molecular_target": "T1, telomerase (MCF-7 cell lysates)", "test": "TRAP assay in cell lysates (PCR-based telomerase activity assay)", "format": "biochemical", "details": "Table 2, C-3 group; TRAP assay; read-out: IC50", "description": "as §1, §2, §3", "values": [
      {"smiles": "C=C1C(=O)[C@](C)(C(=O)OC)[C@H](CCc2ccc(NC(C)=O)cc2)O[C@@H]1C", "note": "(racemic) [Compound 4a, (±) methyl (2S,3R,6R)-2-(4-acetamidophenethyl)-3,6-dimethyl-5-methylene-4-oxotetrahydro2H-pyran-3-carboxylate]", "pIC50": 5.82},
      {"smiles": "C=C1C(=O)[C@@](C)(C(=O)OC(C)C)[C@@H](CCc2ccc(NC(C)=O)cc2)O[C@H]1C", "note": "(racemic) [Compound 4k, (±) isopropyl (2S,3R,6R)-2-(4-acetamidophenethyl)-3,6-dimethyl-5-methylene-4oxotetrahydro-2H-pyran-3-carboxylate]", "pIC50": 4.35},
      {"smiles": "C=C1C(=O)[C@@](C)(C(=O)OCC2CC2)[C@@H](CCc2ccc(NC(C)=O)cc2)O[C@H]1C", "note": "(racemic) [Compound 4l, (±) cyclopropylmethyl (2S,3R,6R)-2-(4-acetamidophenethyl)-3,6-dimethyl-5-methylene-4oxotetrahydro-2H-pyran-3-carboxylate]", "pIC50": 4.12}
    ]}
  ]
}
